Experimental data published in patent US20240051978A1, “3-CYCLIC AMINE-INDOLE DERIVATIVES AS SEROTONERGIC AGENTS FOR THE TREATMENT OF CNS DISORDERS” (MINDSET PHARMA INC., priority 2020, published 2024).
Like-named read-outs stand apart in the source and are kept apart here.

Experiments:
human 5-HT2A receptor = human 5-HT2A receptor (Homo sapiens (Human), UniProt P28223); assay: Radioligand binding assay ([3H]-ketanserin) on human 5-HT2A receptor; details: [3H]-ketanserin competition; read-out: h5-HT2A IC50
Experimental: • i. The assay buffer was prepared following the table below;
• ii. 8 doses of reference and exemplary test compounds were prepared starting from 10 mM stock solution as requested by 5-fold serial dilutions with 100%; • iii. (v/v) DMSO was prepared: a. 50 μl/well of 0.5% (v/v) PEI was added to UniFilter-96 GF/B plates. The plates were sealed and incubates at 4° C. for 3 hrs; b. After incubation, the plates were washed 3 times with ice-cold wash buffer (50 mM Tris, pH7.4); • iv. Preparation of assay plates: a. Cell membrane was diluted with assay buffer and 330 μl/well was added to 96 round deep well plates to reach a concentration of 20 μg/well; b. 8 concentrations of reference or exemplary test compounds were prepared and added 110 μl/well to 96 round deep well plates; c. [3H]-ketanserin was diluted with assay buffer to 5 nM (5× final concentration) and added 110 μl/well to 96 round deep well plates. • v. The plate were centrifuged at 1000 rpm for 30 secs and then agitated at 600 rpm, R.T. for 5 min. • vi. The plates were sealed and incubated at 27° C. for 90 min. • vii. The incubation was stopped by vacuum filtration onto GF/B filter plates followed by 4 times washing with ice-cold wash buffer (50 mM Tris, pH7.4). • vii. […] The filter plates were sealed and 40 μl/well of scintillation cocktail added. • x. The plate was read by using a Microbeta2 microplate counter.
For reference and exemplary test compounds, the results are expressed as % Inhibition, using the normalization equation: N=100−100×(U−C2)/(C1−C2), where U is the unknown value, C1 is the average of high controls, and C2 is the average of low controls. The IC50 was determined by fitting percentage of inhibition as a function of compound concentrations with Hill equation using XLfit.

[1] = molecular target: human 5-HT2A (h5-HT2A) receptor (Homo sapiens (Human), UniProt P28223); assay: FLIPR assay, human 5-HT2A receptor under agonist mode; type: cell-based; details: FLIPR calcium
Experimental: I. Assessment of the Activated Effect of Exemplary Compounds of Formula I Targeting on Human 5-HT2A (h5-HT2A) Receptor Under Agonist Mode:
1. the Cells were cultured in cell culture medium (DMEM containing 10% FBS 1×penicillin-streptomycin 300 μg/ml G418 and 100 μg/ml hygromycin B) at 37° C., 5% (v/v) CO2.
2. One day before the assays, the cells were detached using TrypLE™ Express and cells were counted using cell counter.
3. 20000 cells/well were seeded in 30 μl/well culture medium to a 384-well cell plate and the cells were incubated overnight at 37° C., 5% (v/v) CO2.
4. On the assay day, 2× dye solution was prepared following the manual of the FLIPR® Calcium 6 Assay Kit: i. The dye was diluted with assay buffer(20 mM HEPES in 1×HBSS, PH7.4); ii. Probenecid was added to the final concentration of 5 mM; iii. Vortex vigorously for 1-2 minutes.
5. Medium was removed from cell plate by flicking the cell plate on towel papers.
6. 10 μl of assay buffer and 10 μl of 2× dye solution was added to each well of the cell plate.
7. The cell plate was placed on plate shaker, and the plate was agitated at 600 rpm for 2 minutes. The plate was incubated at 37° C. for 2 hours followed by additional 15-minute incubation at 25° C.
8. 3× compound in assay buffer was prepared: a. reference compounds were diluted to required concentration with DMSO. Compounds were added to a 384-well compound plate; b. Serial dilutions were performed; c. 10 mM test compounds were added to the compound plate, 3-fold serial dilutions were performed. d. […] 20 μl/well assay buffer was added to the compound plate; f. The plate was mixed on plate shaker for 2 mins;
i. The normalized fluorescence reading (RFU) was calculated as shown below, wherein Fmax and Fmin stand for maximum and minimum of calcium signal during defined time window: RFU=Fmax−Fmin
ii. The percentage activation was calculated by using following equation: […]
iii. EC50 was calculated by fitting % activation against log of compound concentrations with Hill equation using XLfit.

[2] = Liver microsomes stability, human; details: for Remaining Percentage (%) 0 min / Remaining Percentage (%) 60 min: Human; for CLint scaled at 2 μM / half-life at 2 μM / microsomal CLint at 2 μM: human, microsomes
Experimental: (§1) The objective of this study was to estimate in vitro metabolic stability of 1-12 in pooled human and male mouse liver microsomes. The concentrations of parent compounds in reaction systems were evaluated by LC-MS/MS for estimating the stability in pooled human and male mouse liver microsomes. The in vitro intrinsic clearances of test compounds were determined as well.
(§2) A master solution in the “Incubation Plate” containing phosphate buffer, ultra-pure H2O, MgCl2 solution and liver microsomes was made according to Table 3. The mixture was pre-warmed at 37° C. water bath for 5 minutes.
(§3) 40 μL of 10 mM NADPH solution was added to each well. The final concentration of NADPH was 1 mM. The negative control samples were prepared by replacing NADPH with 40 μL of ultra-pure H2O. Samples were prepared in duplicate. Negative controls were prepared in singlet.
(§4) The reaction was started with the addition of 4 μL of 200 μM exemplary test compounds or control compounds to each master solution to get the final concentration of 2 μM. This study was performed in duplicate.
(§5) Aliquots of 50 μL were taken from the reaction solution at 0, 15, 30, 45 and 60 minutes. The reaction solutions were stopped by the addition of 4 volumes of cold methanol with IS (100 nM alprazolam, 200 nM imipramine, 200 nM labetalol and 2 μM ketoprofen). Samples were centrifuged at 3,220 g for 40 minutes. Aliquot of 90 μL of the supernatant was mixed with 90 μL of ultra-pure H2O and then was used for LC-MS/MS analysis.
(§6) LC/MS analysis was performed for all samples from this study using a Shimadzu liquid chromatograph separation system equipped with degasser DUG-20A5R; solvent delivery unit LC-30AD; system controller SIL-30AC; column oven CTO-30A; CTC Analytics HTC PAL System; Mass spectrometric analysis was performed using an Triple Quad™ 5500 instrument.
(§7) All calculations were carried out using Microsoft Excel. Peak area ratios of test compound to internal standard (listed in the below table) were determined from extracted ion chromatograms.
(§8) All calculations were carried out using Microsoft Excel. Peak areas were determined from extracted ion chromatograms. The slope value, k, was determined by linear regression of the natural logarithm of the remaining percentage of the parent drug vs. incubation time curve.
(§9) The in vitro half-life (in vitro t½) was determined from the slope value:
(§10) Conversion of the in vitro t½ (min) into the in vitro intrinsic clearance (in vitro CLint, in μL/min/mg proteins) was done using the following equation (mean of duplicate determinations): […]

[3] = Liver microsomes stability, rat; details: for Predicted hepatic CL: Rat liver microsomes, with NADPH; for Remaining Percentage (%) 0 min / Remaining Percentage (%) 60 min: Rat; for CLint scaled at 2 μM / half-life at 2 μM / microsomal CLint at 2 μM: rat, microsomes
Experimental: as §1, §2, §3, §4, §5, §6, §7, §8, §9, §10

[4] = Liver microsomes stability, mouse; details: for Predicted hepatic CL: Mouse liver microsomes, with NADPH; for Remaining Percentage (%) 0 min / Remaining Percentage (%) 60 min: Mouse; for CLint scaled at 2 μM / half-life at 2 μM / microsomal CLint at 2 μM: male, mouse, microsomes
Experimental: as §1, §2, §3, §4, §5, §6, §7, §8, §9, §10

[5] = cited from earlier work
[6] = Human liver microsomes, with NADPH

Structure (SMILES)	IC50 (human 5-HT2A receptor)	EC50 [1]	Predicted hepatic CL [2, 6]	Remaining Percentage (%) 0 min ([2]; With NADPH)	Remaining Percentage (%) 60 min ([2]; With NADPH)	Remaining Percentage (%) 0 min ([2]; Without NADPH)	Remaining Percentage (%) 60 min ([2]; Without NADPH)	Predicted hepatic CL [3]	Remaining Percentage (%) 0 min ([3]; With NADPH)	Remaining Percentage (%) 60 min ([3]; With NADPH)	Remaining Percentage (%) 0 min ([3]; Without NADPH)	Remaining Percentage (%) 60 min ([3]; Without NADPH)	CLint scaled at 2 μM [3]	half-life at 2 μM [3]	microsomal CLint at 2 μM [3]	Predicted hepatic CL [4]	Remaining Percentage (%) 0 min ([4]; With NADPH)	Remaining Percentage (%) 60 min ([4]; With NADPH)	Remaining Percentage (%) 0 min ([4]; Without NADPH)	Remaining Percentage (%) 60 min ([4]; Without NADPH)	further results
[2H]C([2H])N1CCC(c2c[nH]c3cccc(O)c23)C1 (stereo not drawn) [Compound I-32, 3-(1-(methyl-d2)pyrrolidin-3-yl)-1H-indol-4-ol]	1000 to 10000 nM	< 1000 nM	3.99 mL/min/kg	100.00%	88.84%	100.00%	96.34%	0.96 mL/min/kg	100.00%	98.37%	100.00%	92.79%	0.98 mL/min/kg	42.2 h	0.55 µL/min/mg	18.85 mL/min/kg	100.00%	84.91%	100.00%	116.03%	CLint scaled at 2 μM [2]: 4.95 mL/min/kg; half-life at 2 μM [2]: 5.86 h; microsomal CLint at 2 μM [2]: 3.94 µL/min/mg; CLint scaled at 2 μM [4]: 23.9 mL/min/kg; half-life at 2 μM [4]: 4.24 h; microsomal CLint at 2 μM [4]: 5.45 µL/min/mg
[2H]C1([2H])CC(c2c[nH]c3cccc(OCc4ccccc4)c23)C([2H])([2H])N1 (stereo not drawn) [Compound I-35, 4-(benzyloxy)-3-(pyrrolidin-3-yl-2,2,5,5-d4)-1H-indole]	< 1000 nM	< 1000 nM	0.00 mL/min/kg	100.00%	104.21%	100.00%	119.60%	17.94 mL/min/kg	100.00%	64.09%	100.00%	103.32%	26.6 mL/min/kg	1.56 h	14.8 µL/min/mg	32.19 mL/min/kg	100.00%	70.91%	100.00%	90.87%	T1/2 (min) ([2]; Human liver microsomes, with NADPH, 2 μM): ∞; CLint scaled at 2 μM [4]: 50.1 mL/min/kg; half-life at 2 μM [4]: 2.02 h; microsomal CLint at 2 μM [4]: 11.5 µL/min/mg
[2H]C1([2H])CC(c2c[nH]c3cccc(OCc4ccccc4)c23)C([2H])([2H])N1C (single isomer, unassigned) [Compound I-37, 4-(benzyloxy)-3-(1-methylpyrrolidin-3-yl-2,2,5,5-d4)-1H-indole]	< 1000 nM	> 10000 nM	9.50 mL/min/kg	100.00%	65.70%	100.00%	99.55%	26.15 mL/min/kg	100.00%	43.53%	100.00%	101.84%	49.7 mL/min/kg	0.833 h	27.7 µL/min/mg	55.10 mL/min/kg	100.00%	37.75%	100.00%	93.26%	CLint scaled at 2 μM [2]: 17.6 mL/min/kg; half-life at 2 μM [2]: 1.65 h; microsomal CLint at 2 μM [2]: 14 µL/min/mg; CLint scaled at 2 μM [4]: 142 mL/min/kg; half-life at 2 μM [4]: 0.711 h; microsomal CLint at 2 μM [4]: 32.5 µL/min/mg
CN(C)CCc1c[nH]c2cccc(OP(=O)(O)O)c12 [Psilocybin, 4-phosphoryloxy-N,N-dimethyltrypatmine]																					abstinence rate ([5]; 12 months follow-up): 67%; abstinence rate ([5]; six months follow-up): 80%
